From patent US20050113319A1, “11-Deoxy-6,9-ether erythromycin compounds” (priority 2003, published 2005)
≈ marks a conversion by molar mass, not a printed value. Read-outs that look alike come from different tables or passages of the source.

Assays:
motilin receptor [1] = biological target: T1, motilin receptor (Homo sapiens, UniProt O43193); assay: Motilin agonist activity (activation of the motilin receptor); assay type: cell-based
Description: Compounds of this invention were tested for motilin agonist activity, following the procedure of Carreras et al., Anal. Biochem., 300, 146-151 (2002), the disclosure of which is incorporated herein by reference.

[2] = system: Streptococcus pneumoniae ATCC 6301; assay: In vitro antibacterial activity; assay type: cell-based; conditions: ATCC6301
Description: Compounds of this invention were tested for in vitro activity against Streptococcus pneumoniae ATCC 6301, an erythromycin-sensitive strain, using methods known in the microbiological art.

motilin receptor [3] = biological target: T1, motilin receptor; assay: Motilin receptor desensitization, cell-based assay; conditions: for Activity retained following exposure, 1 μM Compound: motilin receptor activity retained after exposure to 1 μM test compound; for Activity retained following exposure, 10 μM Compound: motilin receptor activity retained after exposure to 10 μM test compound
Description: Compounds were tested for motilin receptor desensitization using the cell-based assay described in Carreras et al., U.S. 2002/0192709 A1 (2002), “Methods for Evaluating Therapeutic Efficacy,” incorporated herein by reference. Briefly, the test measures the extent of motilin receptor activity retained after exposure to varying amounts (1 and 10 μM) of test compound.

T1 sequence (O43193 whole entry): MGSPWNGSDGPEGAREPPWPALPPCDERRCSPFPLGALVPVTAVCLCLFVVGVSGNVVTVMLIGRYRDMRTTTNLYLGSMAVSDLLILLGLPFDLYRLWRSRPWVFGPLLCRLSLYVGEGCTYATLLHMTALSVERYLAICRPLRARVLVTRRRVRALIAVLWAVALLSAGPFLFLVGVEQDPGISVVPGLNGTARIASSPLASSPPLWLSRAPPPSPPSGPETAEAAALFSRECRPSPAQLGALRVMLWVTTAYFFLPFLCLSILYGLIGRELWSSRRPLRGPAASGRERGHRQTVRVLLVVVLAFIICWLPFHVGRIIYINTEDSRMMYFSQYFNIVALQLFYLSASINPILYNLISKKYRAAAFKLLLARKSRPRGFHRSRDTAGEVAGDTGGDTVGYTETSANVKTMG

Structure (SMILES): CC[C@H]1OC(=O)[C@H](C)[C@@H](O[C@H]2C[C@@](C)(OC)C[C@H](C)O2)[C@H](C)[C@@H](O[C@@H]2O[C@H](C)C[C@H](N(C)C)[C@H]2O)[C@@]2(C)C[C@@H](C)[C@H](O2)[C@H](C)C[C@H]1C [Compound IVa]
- EC50 (motilin receptor [1]): 42 nM
- MIC ([2]; Streptococcus pneumoniae): 25 µg/mL (≈ 37.3 µM)
- Activity retained following exposure, 1 μM Compound (motilin receptor [3]): 24 % of original
- Activity retained following exposure, 10 μM Compound (motilin receptor [3]): 7 % of original

Structure (SMILES): CC[C@H]1OC(=O)[C@H](C)[C@@H](O[C@H]2C[C@@](C)(OC)[C@@H](O)[C@H](C)O2)[C@H](C)[C@@H](O[C@@H]2O[C@H](C)C[C@H](N(C)C)[C@H]2O)[C@@]2(C)C[C@@H](C)[C@H](O2)[C@H](C)C[C@H]1C [Compound IVb]
- EC50 (motilin receptor [1]): 230 nM
- MIC ([2]; Streptococcus pneumoniae): 100 µg/mL (≈ 146 µM)
- Activity retained following exposure, 1 μM Compound (motilin receptor [3]): 57 % of original
- Activity retained following exposure, 10 μM Compound (motilin receptor [3]): 49 % of original

Structure (SMILES): CC[C@H]1OC(=O)[C@H](C)[C@@H](O[C@H]2C[C@@](C)(OC)C[C@H](C)O2)[C@H](C)[C@@H](O[C@@H]2O[C@H](C)C[C@H](N(C)C(C)C)[C@H]2O)[C@@]2(C)C[C@@H](C)[C@H](O2)[C@H](C)C[C@H]1C [Compound IVc]
- EC50 (motilin receptor [1]): 13 nM
- MIC ([2]; Streptococcus pneumoniae): 50 µg/mL (≈ 71.6 µM)
- Activity retained following exposure, 1 μM Compound (motilin receptor [3]): 9 % of original
- Activity retained following exposure, 10 μM Compound (motilin receptor [3]): 5 % of original

Structure (SMILES): CC[C@H]1OC(=O)[C@H](C)[C@@H](O[C@H]2C[C@@](C)(OC)C[C@H](C)O2)[C@H](C)[C@@H](O[C@@H]2O[C@H](C)C[C@H](N(C)CCF)[C@H]2O)[C@@]2(C)C[C@@H](C)[C@H](O2)[C@H](C)C[C@H]1C [Compound IVd]
- EC50 (motilin receptor [1]): 45 nM
- MIC ([2]; Streptococcus pneumoniae ATCC 6301, erythromycin-sensitive strain, read-out: MIC): > 100 µg/mL
- Activity retained following exposure, 1 μM Compound (motilin receptor [3]): 7 % of original
- Activity retained following exposure, 10 μM Compound (motilin receptor [3]): 5 % of original
